Data taken from publication PMC6300282, “Sulphamethazine derivatives as immunomodulating agents: New therapeutic strategies for inflammatory diseases” (PLoS ONE, 2018).
Where two headings read alike, the source gives them in different places.

Key:
[1] = system: Salmonella typhi (ATCC 14028); assay: Microplate Alamar Blue Assay, Salmonella typhi; assay type: cell-based; details: Salmonella enterica; 200 μg/mL; NI = No inhibition; read-out: Percentage (%) Inhibition, Slamonella typhi
Experimental: (§1) The anti-bacterial activity of synthesized compound were evaluated by the Microplate Alamar Blue Assay. Staphylococcus aureus (ATCC 25923), Pseudomonas aeruginosa(POA 286), Salmonella typhi (ATCC 14028), Bacillus subtilis ATCC 6633) and Escherichia coli (ATCC 12022) were used in this study as a standard bacterial strains and they were obtained from microbial bank of PCMD, International Center for Chemical and Biological Sciences, University of Karachi, Karachi-75270, Pakistan. The bacterial colonies grown in Trypton Soya Agar (TSA) (Oxoid Limited, UK) were inoculated in Mueller Hinton Broth (MHB) (Oxoid Limited, UK) and incubated overnight at 37 °C. Fully grown bacterial cultures were then diluted to adjust with 0.5 McFarland Turbidity Index (equivalent to 1.5 × 10^8 CFU/mL). Stock solutions (4 mg/mL) of different test compounds were prepared in DMSO and 10μL each of these stock solutions were placed in well of flat bottom, polystyrene, sterile 96-wells plate except the positive control wells (media + bacteria). This gives 200μg/mL concentrations of compounds in final 200 μL solution. Each compound was run in triplicates. Finally, bacterial suspension (5 x 10^6 CFU/mL) was added in each well. Plates were sealed by parafilm and incubated at 37 °C for 18–22 hrs. Next day, 20 μL of 0.02% resazurin sodium salt dye (Chem-Impex-Int’LInc) was added in each well and incubated in shaking incubator at 80 rpm, 37 °C for 2–3 hrs. The color change from blue to reddish pink indicates the growth of bacteria. For quantitative analysis, plates were read at 570 nm and 600 nm in Multiskan GOmicroplate spectrophotometer, (Thermo Scientific, USA). The % inhibition of bacterial growth was calculated using below mentioned formula.
(§2) For the calculation of the % difference in reduction between treated and control cells in cytotoxicity/proliferation assays: =(εOX)λ2Aλ1-(εOX)λ1Aλ2oftestagent/(εOX)λ2A°λ1-(εOX)λ1A°λ2ofpositivegrowthcontrol×100

[2] = system: Escherichia coli (ATCC 12022); assay: Microplate Alamar Blue Assay, Escherichia coli; assay type: cell-based
Experimental: as §1, §2

[3] = system: Staphylococcus aureus (ATCC 25923); assay: Microplate Alamar Blue Assay, Staphylococcus aureus; assay type: cell-based; details: Staphylococcus aureus
Experimental: as §1, §2

[4] = system: Pseudomonas aeruginosa (POA 286); assay: Microplate Alamar Blue Assay, Pseudomonas aeruginosa; assay type: cell-based; details: Pseudomonas aeruginosa, read-out: Percentage (%) Inhibition, Pseudomonas aerugenosa
Experimental: as §1, §2

[5] = system: Bacillus subtilis (ATCC 6633); assay: Microplate Alamar Blue Assay, Bacillus subtilis; assay type: cell-based
Experimental: as §1, §2

[6] = MTT cytotoxicity assay; assay type: cell-based, mouse; details: mouse; MTT, 48 hours; read-out: Cytotoxicity NIH-3T3 cell line (IC50)
Experimental: The cytotoxicity was recorded as concentration causing 50% growth inhibition (IC50).

[7] = ATCC12022, 200 μg/mL, NI = No inhibition, read-out: Percentage (%) Inhibition, Escherichia coli
[8] = ATCC25923, 200 μg/mL, NI = No inhibition, read-out: Percentage (%) Inhibition, Staphylococcus aureus
[9] = ATCC6633, 200 μg/mL, NI = No inhibition, read-out: Percentage (%) Inhibition, Bacillus subtilis

| Compound | inhibition at 200 µg/mL [1] [%] | inhibition at 200 µg/mL [2, 7] [%] | inhibition at 200 µg/mL [3, 8] [%] | inhibition at 200 µg/mL ([4]; 200 μg/mL, NI = No inhibition) [%] | inhibition at 200 µg/mL [5, 9] [%] | IC50 [6] [µM] | inhibition at 200 µg/mL ([2]; ATCC12022, read-out: Percentage (%) Inhibition, Escherichia coli) [%] | inhibition at 200 µg/mL ([3]; ATCC25923, read-out: Percentage (%) Inhibition, Staphylococcus aureus) [%] | inhibition at 200 µg/mL [4] [%] | inhibition at 200 µg/mL ([5]; ATCC6633, read-out: Percentage (%) Inhibition, Bacillus subtilis) [%] | IC50 at 48 h [6] [µM] |
| --- | --- | --- | --- | --- | --- | --- | --- | --- | --- | --- | --- |
| Cc1cc(C)nc(NS(=O)(=O)c2ccc(NC(=O)c3cccc(C(F)(F)F)c3F)cc2)n1 [Compound 14, N-(4-(N-(4,6-dimethylpyrimidin-2-yl)sulfamoyl)phenyl)-2-fluoro-3-(trifluoromethyl)benzamide] | 25.4 | < 0 | 27.4 | 1.04 | < 0 | > 30 | – | – | – | – | – |
| Cc1cc(C)nc(NS(=O)(=O)c2ccc(NC(=O)c3cccc(F)c3)cc2)n1 [Compound 16, N-(4-(N-(4,6-dimethylpyrimidin-2-yl)sulfamoyl)phenyl)-3-fluorobenzamide] | 19.4 | < 0 | 47.2 | < 0 | < 0 | > 30 | – | – | – | – | – |
| Cc1cc(C)nc(NS(=O)(=O)c2ccc(NC(=O)c3ccccc3F)cc2)n1 [Compound 17, N-(4-(N-(4,6-dimethylpyrimidin-2-yl)sulfamoyl)phenyl)-2-fluorobenzamide] | – | < 0 | 24.3 | < 0 | < 0 | > 30 | – | – | – | – | – |
| Cc1cc(C)nc(NS(=O)(=O)c2ccc(NC(=O)c3ccc(F)c(F)c3)cc2)n1 [Compound 18, N-(4-(N-(4,6-dimethylpyrimidin-2-yl)sulfamoyl)phenyl)-3,4-difluorobenzamide] | 22.5 | < 0 | 49.7 | < 0 | < 0 | > 30 | – | – | – | – | – |
| Cc1cc(C)nc(NS(=O)(=O)c2ccc(NC(=O)c3ccc(C(F)(F)F)cc3)cc2)n1 [Compound 19, N-(4-(N-(4,6-dimethylpyrimidin-2-yl)sulfamoyl)phenyl)-4-(trifluoromethyl)benzamide] | 0.99 | < 0 | 49.4 | 2.37 | < 0 | > 30 | – | – | – | – | – |
| Cc1cc(C)nc(NS(=O)(=O)c2ccc(NC(=O)c3cccc(Cl)c3)cc2)n1 [Compound 21, 3-chloro-N-(4-(N-(4,6-dimethylpyrimidin-2-yl)sulfamoyl)phenyl)benzamide] | 14.6 | < 0 | 54.6 | 28 | < 0 | > 30 | – | – | – | – | – |
| Cc1cc(C)nc(NS(=O)(=O)c2ccc(NC(=O)c3ccc(Cl)cc3)cc2)n1 [Compound 22, 4-chloro-N-(4-(N-(4,6-dimethylpyrimidin-2-yl)sulfamoyl)phenyl)benzamide] | 11.6 | < 0 | 44.3 | 9.78 | < 0 | > 30 | – | – | – | – | – |
| Cc1cc(C)nc(NS(=O)(=O)c2ccc(NC(=O)c3cc(Cl)ccc3Cl)cc2)n1 [Compound 23, 2,5-dichloro-N-(4-(N-(4,6-dimethylpyrimidin-2-yl)sulfamoyl)phenyl)benzamide] | < 0 | < 0 | 5.76 | 1.54 | < 0 | > 30 | – | – | – | – | – |
| Cc1cc(C)nc(NS(=O)(=O)c2ccc(NC(=O)c3ccc([N+](=O)[O-])cc3)cc2)n1 [Compound 25, N-(4-(N-(4,6-dimethylpyrimidin-2-yl)sulfamoyl)phenyl)-4-nitrobenzamide] | 4.64 | 1.21 | 17.5 | 6.35 | < 0 | > 30 | – | – | – | – | – |
| Cc1cc(C)nc(NS(=O)(=O)c2ccc(NC(=O)c3cc([N+](=O)[O-])cc([N+](=O)[O-])c3)cc2)n1 [Compound 26, N-(4-(N-(4,6-dimethylpyrimidin-2-yl)sulfamoyl)phenyl)-3,5-dinitrobenzamide] | < 0 | – | – | – | – | – | < 0 | 34.7 | < 0 | < 0 | > 30 |
| Cc1cc(C)nc(NS(=O)(=O)c2ccc(NC(=O)c3ccc([N+](=O)[O-])cc3Cl)cc2)n1 [Compound 27, 2-chloro-N-(4-(N-(4,6-dimethylpyrimidin-2-yl)sulfamoyl)phenyl)-4-nitrobenzamide] | 3.72 | < 0 | 50.1 | < 0 | < 0 | > 30 | – | – | – | – | – |
| Cc1cc(C)nc(NS(=O)(=O)c2ccc(NC(=O)c3ccccc3Br)cc2)n1 [Compound 28, 2-Bromo-N-(4-(N-(4,6-dimethylpyrimidin-2-yl)sulfamoyl)phenyl)benzamide] | 11.1 | 4.65 | 58.5 | 3.99 | < 0 | > 30 | – | – | – | – | – |
| Cc1cc(C)nc(NS(=O)(=O)c2ccc(NC(=O)c3ccc(Br)cc3)cc2)n1 [Compound 29, 4-Bromo-N-(4-(N-(4,6-dimethylpyrimidin-2-yl)sulfamoyl)phenyl)benzamide] | 14.1 | < 0 | 52.3 | 15 | < 0 | > 30 | – | – | – | – | – |
| Cc1cc(C)nc(NS(=O)(=O)c2ccc(NC(=O)c3cccc(Br)c3)cc2)n1 [Compound 30, 3-Bromo-N-(4-(N-(4,6-dimethylpyrimidin-2-yl)sulfamoyl)phenyl)benzamide] | 4.26 | < 0 | 34.2 | < 0 | < 0 | > 30 | – | – | – | – | – |
| Cc1cc(C)nc(NS(=O)(=O)c2ccc(NC(=O)c3cccc(I)c3)cc2)n1 [Compound 31, N-(4-(N-(4,6-dimethylpyrimidin-2-yl)sulfamoyl)phenyl)-3-iodobenzamide] | < 0 | < 0 | 13 | < 0 | < 0 | > 30 | – | – | – | – | – |
| COc1cccc(C(=O)Nc2ccc(S(=O)(=O)Nc3nc(C)cc(C)n3)cc2)c1 [Compound 32, N-(4-(N-(4,6-dimethylpyrimidin-2-yl)sulfamoyl)phenyl)-3-methoxybenzamide] | 19 | < 0 | 32.9 | < 0 | < 0 | > 30 | – | – | – | – | – |
| COc1cc(OC)cc(C(=O)Nc2ccc(S(=O)(=O)Nc3nc(C)cc(C)n3)cc2)c1 [Compound 33, N-(4-(N-(4,6-dimethylpyrimidin-2-yl)sulfamoyl)phenyl)-3,5-dimethoxybenzamide] | < 0 | < 0 | 31.3 | < 0 | < 0 | > 30 | – | – | – | – | – |
| Cc1ccc(C(=O)Nc2ccc(S(=O)(=O)Nc3nc(C)cc(C)n3)cc2)cc1 [Compound 34, N-(4-(N-(4,6-dimethylpyrimidin-2-yl)sulfamoyl)phenyl)-4-methylbenzamide] | 0.65 | < 0 | < 0 | 15.4 | < 0 | > 30 | – | – | – | – | – |
| CC1COc2c(N3CCN(C)CC3)c(F)cc3c(=O)c(C(=O)O)cn1c23 (stereo not shown) [Ofloxacin, reference compound] | 89.8 | 94.4 | 94.1 | 94.1 | 93.8 | – | – | – | – | – | – |
